# Test results reported in ChEMBL document CHEMBL5465560, “Selectivity Literature for EUbOPEN Chemogenomic Library” (2024).
# Tests used:
# [1] = biological target: Serine/threonine-protein kinase SIK1 (Homo sapiens) (UniProt P57059); test: Selectivity interaction (KinomeScan (DiscoverX)) EUB0000666a SIK1; settings: at 10 µM
# [2] = biological target: T1, Dual specificity mitogen-activated protein kinase kinase 4 (Homo sapiens) (UniProt P45985); test: Selectivity interaction (ActivX KiNativ screen (kinase selectivity in THP-1 cell lysates)) EUB0000639a MAP2K4; format: subcellular; settings: lysate, at 0.04 µM
# T1 sequence (whole entry): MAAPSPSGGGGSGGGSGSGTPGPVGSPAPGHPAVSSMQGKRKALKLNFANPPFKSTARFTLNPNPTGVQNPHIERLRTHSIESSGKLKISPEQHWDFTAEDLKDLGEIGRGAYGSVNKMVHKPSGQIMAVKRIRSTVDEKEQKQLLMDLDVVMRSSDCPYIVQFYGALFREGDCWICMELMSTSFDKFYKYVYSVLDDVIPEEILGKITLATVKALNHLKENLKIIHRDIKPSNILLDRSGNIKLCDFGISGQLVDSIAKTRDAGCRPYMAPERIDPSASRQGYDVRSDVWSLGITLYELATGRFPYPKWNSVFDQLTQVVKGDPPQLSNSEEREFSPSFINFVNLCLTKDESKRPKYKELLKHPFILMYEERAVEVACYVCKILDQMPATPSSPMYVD
# [3] = biological target: Calcium/calmodulin-dependent protein kinase type II subunit delta (Homo sapiens) (UniProt Q13557); test: Selectivity interaction (ActivX KiNativ screen (kinase selectivity in THP-1 cell lysates)) EUB0000639a CAMK2D; format: subcellular; settings: lysate, at 0.01 µM
# [4] = biological target: Death-associated protein kinase 2 (Homo sapiens) (UniProt Q9UIK4); settings: at 10 µM
# [5] = biological target: Dual specificity protein kinase CLK4 (Homo sapiens, UniProt Q9HAZ1); test: Selectivity interaction (KinomeScan (DiscoverX)) EUB0000092b CLK4; settings: at 10 µM
# [6] = biological target: Proto-oncogene tyrosine-protein kinase ROS (Homo sapiens) (UniProt P08922); test: Selectivity interaction (KinomeScan (DiscoverX)) EUB0000092b ROS1; settings: at 10 µM
# [7] = biological target: T2, Mitogen-activated protein kinase kinase kinase 5 (Homo sapiens) (UniProt Q99683); settings: at 10 µM
# T2 sequence (whole entry): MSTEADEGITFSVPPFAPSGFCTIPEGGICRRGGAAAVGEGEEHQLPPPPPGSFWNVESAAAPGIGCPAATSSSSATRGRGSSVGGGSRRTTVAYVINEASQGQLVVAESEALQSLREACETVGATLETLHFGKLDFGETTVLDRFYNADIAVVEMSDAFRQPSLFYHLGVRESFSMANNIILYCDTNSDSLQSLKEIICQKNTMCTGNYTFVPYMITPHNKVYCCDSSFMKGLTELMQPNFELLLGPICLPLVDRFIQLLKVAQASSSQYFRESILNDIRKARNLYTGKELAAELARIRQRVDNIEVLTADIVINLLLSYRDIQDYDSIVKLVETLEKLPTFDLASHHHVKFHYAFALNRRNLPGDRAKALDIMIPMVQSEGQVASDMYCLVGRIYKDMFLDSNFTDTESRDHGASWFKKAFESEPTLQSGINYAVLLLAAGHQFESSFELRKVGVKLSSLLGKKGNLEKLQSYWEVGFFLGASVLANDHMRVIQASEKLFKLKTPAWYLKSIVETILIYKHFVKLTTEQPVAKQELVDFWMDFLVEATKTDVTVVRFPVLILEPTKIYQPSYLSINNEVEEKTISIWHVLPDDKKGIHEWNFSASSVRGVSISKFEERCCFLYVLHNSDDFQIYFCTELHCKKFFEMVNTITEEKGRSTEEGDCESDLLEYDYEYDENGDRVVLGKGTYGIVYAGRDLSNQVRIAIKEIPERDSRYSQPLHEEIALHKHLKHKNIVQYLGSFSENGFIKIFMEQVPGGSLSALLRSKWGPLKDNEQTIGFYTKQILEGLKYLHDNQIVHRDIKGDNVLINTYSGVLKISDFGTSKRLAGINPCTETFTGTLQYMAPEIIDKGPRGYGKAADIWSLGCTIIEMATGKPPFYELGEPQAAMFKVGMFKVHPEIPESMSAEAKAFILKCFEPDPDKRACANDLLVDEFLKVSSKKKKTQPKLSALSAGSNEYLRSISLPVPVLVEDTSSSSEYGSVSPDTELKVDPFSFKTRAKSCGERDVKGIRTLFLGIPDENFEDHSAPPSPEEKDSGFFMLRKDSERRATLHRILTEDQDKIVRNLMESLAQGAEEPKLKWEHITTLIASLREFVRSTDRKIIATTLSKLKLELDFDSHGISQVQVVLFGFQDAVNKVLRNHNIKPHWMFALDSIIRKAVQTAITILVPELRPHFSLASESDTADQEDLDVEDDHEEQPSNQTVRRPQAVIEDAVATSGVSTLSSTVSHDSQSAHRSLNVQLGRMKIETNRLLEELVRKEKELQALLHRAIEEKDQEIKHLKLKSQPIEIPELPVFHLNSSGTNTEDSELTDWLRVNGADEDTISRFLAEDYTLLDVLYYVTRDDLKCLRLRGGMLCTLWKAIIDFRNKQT
# [8] = biological target: T3, Serine/threonine-protein kinase TBK1 (Homo sapiens) (UniProt Q9UHD2); test: Selectivity interaction (SelectScreen profiling (Invitrogen)) EUB0000607a TBK1; settings: at 2 µM
# T3 sequence (whole entry): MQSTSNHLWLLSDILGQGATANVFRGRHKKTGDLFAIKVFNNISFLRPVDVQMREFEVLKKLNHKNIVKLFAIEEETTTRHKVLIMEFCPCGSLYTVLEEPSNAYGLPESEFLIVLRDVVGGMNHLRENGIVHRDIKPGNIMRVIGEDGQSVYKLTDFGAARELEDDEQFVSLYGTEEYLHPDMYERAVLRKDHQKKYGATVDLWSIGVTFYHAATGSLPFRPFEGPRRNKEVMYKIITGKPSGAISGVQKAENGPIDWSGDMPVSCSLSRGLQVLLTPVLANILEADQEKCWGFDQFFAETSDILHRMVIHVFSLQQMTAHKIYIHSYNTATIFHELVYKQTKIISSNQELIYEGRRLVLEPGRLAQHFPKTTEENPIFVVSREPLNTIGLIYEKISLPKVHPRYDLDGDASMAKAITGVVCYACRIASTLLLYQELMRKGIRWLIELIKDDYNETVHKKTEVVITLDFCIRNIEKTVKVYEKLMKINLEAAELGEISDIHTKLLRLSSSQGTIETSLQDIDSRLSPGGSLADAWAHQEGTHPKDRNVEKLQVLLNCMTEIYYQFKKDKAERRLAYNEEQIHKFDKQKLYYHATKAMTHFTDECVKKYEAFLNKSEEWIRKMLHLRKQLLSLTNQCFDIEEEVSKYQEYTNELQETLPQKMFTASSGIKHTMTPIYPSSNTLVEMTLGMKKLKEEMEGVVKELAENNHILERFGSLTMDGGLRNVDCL
# [9] = biological target: Tyrosine-protein kinase Lyn (Homo sapiens, UniProt P07948); test: Selectivity interaction (Kinase panel (Z-LYTE Assay)) EUB0001632a LYN; settings: at 10 µM
# Sequence of Tyrosine-protein kinase Lyn (P07948 2-512 limits assumed): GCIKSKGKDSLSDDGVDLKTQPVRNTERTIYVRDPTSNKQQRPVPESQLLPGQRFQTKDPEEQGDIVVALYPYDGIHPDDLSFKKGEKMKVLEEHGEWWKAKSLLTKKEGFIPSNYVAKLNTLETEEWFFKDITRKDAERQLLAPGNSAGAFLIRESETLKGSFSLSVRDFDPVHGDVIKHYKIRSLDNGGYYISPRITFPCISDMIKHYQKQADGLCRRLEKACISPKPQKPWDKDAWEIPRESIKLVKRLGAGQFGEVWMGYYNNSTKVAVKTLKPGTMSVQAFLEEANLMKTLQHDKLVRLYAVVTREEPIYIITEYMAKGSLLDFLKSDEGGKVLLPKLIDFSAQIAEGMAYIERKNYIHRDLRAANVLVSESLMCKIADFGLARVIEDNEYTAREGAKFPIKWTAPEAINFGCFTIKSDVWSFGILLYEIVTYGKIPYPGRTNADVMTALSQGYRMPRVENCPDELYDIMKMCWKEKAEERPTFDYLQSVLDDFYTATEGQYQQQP
# Sequence of Calcium/calmodulin-dependent protein kinase type II subunit delta (Homo sapiens) (Q13557 whole entry): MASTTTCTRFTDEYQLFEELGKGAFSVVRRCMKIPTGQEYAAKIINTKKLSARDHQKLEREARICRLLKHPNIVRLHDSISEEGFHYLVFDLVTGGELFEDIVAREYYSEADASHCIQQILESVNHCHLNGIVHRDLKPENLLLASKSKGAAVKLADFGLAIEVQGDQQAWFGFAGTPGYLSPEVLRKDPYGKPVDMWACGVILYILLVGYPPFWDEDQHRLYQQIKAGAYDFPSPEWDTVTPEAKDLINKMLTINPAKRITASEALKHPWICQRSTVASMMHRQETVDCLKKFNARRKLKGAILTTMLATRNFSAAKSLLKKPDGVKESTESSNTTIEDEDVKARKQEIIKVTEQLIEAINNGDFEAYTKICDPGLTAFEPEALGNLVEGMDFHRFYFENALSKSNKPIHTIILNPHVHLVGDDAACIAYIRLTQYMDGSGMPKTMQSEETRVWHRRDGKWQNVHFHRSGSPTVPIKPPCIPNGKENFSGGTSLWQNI
# Sequence of Proto-oncogene tyrosine-protein kinase ROS (Homo sapiens) (P08922 whole entry): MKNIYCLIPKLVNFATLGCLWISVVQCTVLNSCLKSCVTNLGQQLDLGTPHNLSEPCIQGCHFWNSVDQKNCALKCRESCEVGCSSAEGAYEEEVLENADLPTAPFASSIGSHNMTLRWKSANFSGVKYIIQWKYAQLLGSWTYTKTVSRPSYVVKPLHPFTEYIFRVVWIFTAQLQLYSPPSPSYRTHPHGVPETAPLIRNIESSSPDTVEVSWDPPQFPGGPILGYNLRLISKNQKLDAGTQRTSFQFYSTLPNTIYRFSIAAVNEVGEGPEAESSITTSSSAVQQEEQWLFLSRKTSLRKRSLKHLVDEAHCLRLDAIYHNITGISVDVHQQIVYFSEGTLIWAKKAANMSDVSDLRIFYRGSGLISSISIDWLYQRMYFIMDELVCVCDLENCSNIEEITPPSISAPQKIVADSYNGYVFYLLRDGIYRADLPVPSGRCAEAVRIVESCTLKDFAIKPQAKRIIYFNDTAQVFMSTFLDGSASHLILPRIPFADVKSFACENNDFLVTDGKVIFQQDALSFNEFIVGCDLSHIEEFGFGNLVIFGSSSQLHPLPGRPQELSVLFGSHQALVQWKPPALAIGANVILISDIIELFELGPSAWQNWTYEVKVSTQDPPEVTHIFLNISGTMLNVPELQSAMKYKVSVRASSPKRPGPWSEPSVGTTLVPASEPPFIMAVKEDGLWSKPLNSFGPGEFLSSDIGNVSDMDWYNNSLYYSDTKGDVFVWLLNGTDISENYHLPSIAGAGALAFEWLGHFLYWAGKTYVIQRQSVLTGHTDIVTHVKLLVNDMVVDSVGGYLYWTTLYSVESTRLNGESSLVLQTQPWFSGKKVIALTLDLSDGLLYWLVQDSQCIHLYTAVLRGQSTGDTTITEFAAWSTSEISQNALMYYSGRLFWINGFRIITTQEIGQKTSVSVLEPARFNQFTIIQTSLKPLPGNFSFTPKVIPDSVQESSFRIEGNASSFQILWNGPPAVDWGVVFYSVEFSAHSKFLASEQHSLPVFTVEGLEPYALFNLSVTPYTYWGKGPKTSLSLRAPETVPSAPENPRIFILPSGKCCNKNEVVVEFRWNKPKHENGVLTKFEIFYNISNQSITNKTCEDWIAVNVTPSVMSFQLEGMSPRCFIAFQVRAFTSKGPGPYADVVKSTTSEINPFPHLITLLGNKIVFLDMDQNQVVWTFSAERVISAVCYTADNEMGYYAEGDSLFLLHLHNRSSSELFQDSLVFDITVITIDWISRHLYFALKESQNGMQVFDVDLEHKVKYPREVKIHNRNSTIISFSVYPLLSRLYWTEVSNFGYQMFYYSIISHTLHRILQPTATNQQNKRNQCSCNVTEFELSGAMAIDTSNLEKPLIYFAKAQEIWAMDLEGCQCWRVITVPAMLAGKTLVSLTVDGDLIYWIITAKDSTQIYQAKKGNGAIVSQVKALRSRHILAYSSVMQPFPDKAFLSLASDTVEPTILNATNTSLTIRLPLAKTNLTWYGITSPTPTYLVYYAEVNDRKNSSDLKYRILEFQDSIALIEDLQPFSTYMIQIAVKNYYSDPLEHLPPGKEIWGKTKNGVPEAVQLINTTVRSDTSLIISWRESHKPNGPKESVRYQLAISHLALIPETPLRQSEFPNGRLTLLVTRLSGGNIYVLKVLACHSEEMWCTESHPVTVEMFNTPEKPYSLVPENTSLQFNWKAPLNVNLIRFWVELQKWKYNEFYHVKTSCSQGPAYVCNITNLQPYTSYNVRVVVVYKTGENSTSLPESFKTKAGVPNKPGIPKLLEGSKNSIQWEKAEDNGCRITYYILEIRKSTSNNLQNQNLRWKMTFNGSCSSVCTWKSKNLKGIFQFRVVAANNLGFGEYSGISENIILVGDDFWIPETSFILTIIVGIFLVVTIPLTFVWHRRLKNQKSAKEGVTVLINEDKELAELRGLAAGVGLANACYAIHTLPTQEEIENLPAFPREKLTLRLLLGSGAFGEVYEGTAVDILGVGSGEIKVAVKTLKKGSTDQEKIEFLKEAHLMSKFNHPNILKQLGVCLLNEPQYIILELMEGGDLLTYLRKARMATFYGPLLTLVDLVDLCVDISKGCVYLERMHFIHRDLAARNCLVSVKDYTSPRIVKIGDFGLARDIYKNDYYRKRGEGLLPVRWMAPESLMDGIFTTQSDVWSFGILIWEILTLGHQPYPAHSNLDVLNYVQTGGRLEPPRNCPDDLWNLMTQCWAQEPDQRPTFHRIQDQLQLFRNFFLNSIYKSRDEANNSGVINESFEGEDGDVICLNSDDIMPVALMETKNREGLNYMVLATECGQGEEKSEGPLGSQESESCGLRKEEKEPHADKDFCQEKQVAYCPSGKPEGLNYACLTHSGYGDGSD
# Sequence of Dual specificity protein kinase CLK4 (Q9HAZ1 whole entry, looked up): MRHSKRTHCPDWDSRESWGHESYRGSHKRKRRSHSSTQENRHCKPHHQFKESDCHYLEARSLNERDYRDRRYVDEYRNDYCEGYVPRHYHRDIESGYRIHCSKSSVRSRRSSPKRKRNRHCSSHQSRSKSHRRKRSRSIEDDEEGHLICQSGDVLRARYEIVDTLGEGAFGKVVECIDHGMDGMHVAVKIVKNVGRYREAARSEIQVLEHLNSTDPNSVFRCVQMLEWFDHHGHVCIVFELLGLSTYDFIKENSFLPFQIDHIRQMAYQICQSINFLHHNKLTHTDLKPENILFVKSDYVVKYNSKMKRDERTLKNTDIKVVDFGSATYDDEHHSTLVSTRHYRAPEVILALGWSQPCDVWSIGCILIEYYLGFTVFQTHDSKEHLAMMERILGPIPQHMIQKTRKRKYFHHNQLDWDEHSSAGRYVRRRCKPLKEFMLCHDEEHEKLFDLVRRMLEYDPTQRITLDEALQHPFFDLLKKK
# Sequence of Serine/threonine-protein kinase SIK1 (Homo sapiens) (P57059 whole entry): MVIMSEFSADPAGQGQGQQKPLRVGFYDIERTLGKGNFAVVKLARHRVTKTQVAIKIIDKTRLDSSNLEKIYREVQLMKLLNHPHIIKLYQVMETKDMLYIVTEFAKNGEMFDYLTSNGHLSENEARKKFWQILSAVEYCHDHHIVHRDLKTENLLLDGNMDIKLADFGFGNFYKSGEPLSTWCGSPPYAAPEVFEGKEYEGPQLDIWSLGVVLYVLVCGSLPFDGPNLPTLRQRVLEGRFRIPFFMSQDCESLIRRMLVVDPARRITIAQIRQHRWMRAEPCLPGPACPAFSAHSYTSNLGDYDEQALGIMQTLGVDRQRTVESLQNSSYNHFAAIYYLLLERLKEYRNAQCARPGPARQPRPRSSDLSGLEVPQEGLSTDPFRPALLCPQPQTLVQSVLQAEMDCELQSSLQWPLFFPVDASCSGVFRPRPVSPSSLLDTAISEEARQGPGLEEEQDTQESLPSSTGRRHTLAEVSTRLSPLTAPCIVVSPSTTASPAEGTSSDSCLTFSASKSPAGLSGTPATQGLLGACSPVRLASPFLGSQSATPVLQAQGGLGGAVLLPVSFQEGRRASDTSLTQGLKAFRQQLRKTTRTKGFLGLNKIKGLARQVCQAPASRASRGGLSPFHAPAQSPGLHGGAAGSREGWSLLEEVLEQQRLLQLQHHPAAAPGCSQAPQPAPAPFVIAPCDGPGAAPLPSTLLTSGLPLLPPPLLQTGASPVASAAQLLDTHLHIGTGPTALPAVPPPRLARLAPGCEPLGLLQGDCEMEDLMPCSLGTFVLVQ
# Sequence of Death-associated protein kinase 2 (Homo sapiens) (Q9UIK4 whole entry, looked up): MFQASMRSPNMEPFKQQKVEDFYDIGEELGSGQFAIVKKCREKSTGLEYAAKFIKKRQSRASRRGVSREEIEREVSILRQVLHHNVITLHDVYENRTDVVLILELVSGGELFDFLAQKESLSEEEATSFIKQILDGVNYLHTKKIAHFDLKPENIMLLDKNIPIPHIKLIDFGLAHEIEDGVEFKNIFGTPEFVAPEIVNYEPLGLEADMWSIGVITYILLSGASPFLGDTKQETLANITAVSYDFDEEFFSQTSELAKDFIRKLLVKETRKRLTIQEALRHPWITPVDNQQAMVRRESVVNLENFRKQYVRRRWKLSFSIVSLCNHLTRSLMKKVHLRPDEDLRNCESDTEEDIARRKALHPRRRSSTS
smiles,measurement,setting,value
O=C(NOC[C@H](O)CO)c1ccc(F)c(F)c1Nc1ccc(I)cc1F,% of control,[1],100%
CC[C@@H]1[C@H](F)C(=O)N[C@@H]1COc1nccc2cc(C(N)=O)c(OC)cc12 [ZIMLOVISERTIB],% of inhibition,[2],8%
same,% of inhibition,[3],3.3%
COCC(=O)NC/C=C/c1ccc2ncnc(Nc3ccc(Oc4ccc(C)nc4)c(C)c3)c2c1 [CP-724714],% of control,[4],89%
CCC(=O)N1CCN(c2ccc(-n3c(=O)ccc4cnc5ccc(-c6cnc7ccccc7c6)cc5c43)cc2C(F)(F)F)CC1,% of control,[5],49%
same,% of control,[6],71%
Cc1cc([C@@H](C)Nc2ccccc2C(=O)O)c2nc(N3CCOCC3)cc(=O)n2c1 [AZD-6482],% of control,[7],100%
CNC(=O)Nc1ccc(-c2nc(N3CC4CCC(C3)O4)c3cnn(C4CCC5(CC4)OCCO5)c3n2)cc1,% of inhibition,[8],2%
Cn1cc(-n2cnc3c(NCc4nc5cc(Cl)c(Cl)cc5[nH]4)nc(N4CCOCC4)nc32)cn1,% of control,[9],6.83%
